Measured values as given in patent US7041677B2, “Use of monochloroflosequinan in the treatment of sexual dysfunction” (R.T. Alamo Ventures I, LLC, priority 2002, dated 2006).

What was measured:
[1] = Plasma levels following oral administration; format: in vivo
PDE4 = PDE4 enzyme inhibition assay; format: biochemical, human; details: 200 μM, 25° C., 1% DMSO vehicle
Excerpt: In this example, a racemic mixture of monochloroflosequinan and the sulfone derivative of monochloroflosequinan were independently subjected to biochemical enzyme assays to determine their respective percent inhibition of a variety of phosphodiesterases (PDE1-PDE6). The methods used have been adapted from those described in the scientific literature, see Hidaka and Asano “Human blood platelet 3′:5′ cyclic nucleotide phosphodiesterase. Isolation of low-Km and high Km phosphodiesterase.” Biochem. Biophys. […] Unhydrolyzed cAMP was bound to AGI-X2 resin, and the remaining [^3H]adenosine in the aqueous phase was quantitated by scintillation counting. • PDE2: PDE2 partially purified from human platelets was used. […] Unhydrolyzed cAMP was bound to AGI-X2 resin, and the remaining [^3H]adenosine in the aqueous phase was quantitated by scintillation counting. • PDE3: PDE3 partially purified from human platelets was used. […] Unhydrolyzed cAMP was bound to AGI-X2 resin, and the remaining [^3H]adenosine in the aqueous phase was quantitated by scintillation counting. • PDE4: PDE4 partially purified from human U-937 pronocytic cells was used. […] Unhydrolyzed cAMP was bound to AGI-X2 resin, and the remaining [^3H]adenosine in the aqueous phase was quantitated by scintillation counting. • PDE5: PDE5 partially purified from human platelets was used. […]

| Compound | time of peak plasma concentrations ([1]; following oral administration) [h] | time of peak metabolite plasma levels ([1]; following oral dosage) | inhibition of PDE4 (PDE4) |
| --- | --- | --- | --- |
| Cn1cc([S@+]([O-])CCl)c(=O)c2ccc(F)cc21 (single isomer, unassigned) [(+)-enantiomer of monochloroflosequinan] | 1 to 2 | about seven | – |
| Cn1cc([S@@+]([O-])CCl)c(=O)c2ccc(F)cc21 (single isomer, unassigned) [(−)-enantiomer of monochloroflosequinan] | – | – | greater than 50% |
